Results as given in patent publication US6894068B2, “Substituted benzimidazoles as non-nucleoside inhibitors of reverse transcriptase” (The United States of America as represented by the …, priority 1997, dated 2005).
Where two headings read alike, the source gives them in different places.

Experiments:
[1] = tested on: HIV-1 NL4-3 (WT); experiment: Cytopathic cell killing assay, MT-4 cells, isolate NL4-3 (WT); assay type: cell-based
Source text: (§1) The various HIV isolates tested in the Figures are those corresponding to wild-type virus (NL4-3) and the other strains listed by their RT mutations. The three 4×AZT isolates included in the Figures represent AZT drug-resistant variants. For example, the 4×AZT/L100I isolate has five mutations: four mutations confer increased resistance to AZT, and the other mutation is located within the NNRTI binding pocket. TZB and nevir. (nevirapine) are two well-known NNRTIs, included in this experiment for comparison purposes.
(§2) In this Example, the antiviral and cellular toxicity of NNRTIs was investigated, using the cytopathic cell killing assay described by Yang (Yang et al., “Characteristics of a Group of Non-nucleoside Reverse Transcriptase Inhibitors with Structural Diversity and Potent Anti-Human Immunodeficiency Virus Activity,” Leukemia 9:S75-S85 [1995]). Briefly, in this method cells (e.g., the CEM-SS cell line, available from the NIAID AIDS Research and Reference Program [ARRRP]) were seeded at a density of 5×10^3 cells/well, into the wells of a 96-well microtiter plate. The cells were then infected with HIV virus (either mutant or WT), at a multiplicity of infection (MOI) previously determined to provide complete cell killing by 6 days of culture post-infection (e.g., MOI of 0.01-0.05). Each of the HIV isolates was pre-titered to induce equivalent levels of infection based on cell killing or virus production, prior to their use in these assays. A range of test compound concentrations was added to the wells in triplicate (e.g., serial half-log dilutions) to evaluate inhibition of HIV infection. Controls for each assay included drug controls (drug colorimetric control wells), drug cytotoxicity control wells (cells with drug), virus control wells (cells with virus), and cell viability controls (cells only). Positive control drugs (e.g. AZT and ddC) were also run in parallel.
(§3) After six days of incubation at 37° C., cell viability was determined spectrophotometrically at 450 nm for each well, using the metabolic reduction of XTT to a soluble colored formazan. (See, Gartner and Popovic, “Virus Isolation and Production, in Aldovini and Walker (eds.), Techniques in HIV Research, Stockton Press, NY, pp. […] [1991]; and Nara and Fischinger, “Quantitative Infectivity Assay for HIV-1 and HIV-2, ” Nature 332:469-470 [1988]).
(§4) The in vitro therapeutic index (TI50) was defined as the fold-difference between the EC50 and IC50. The results for the various compounds are included in FIGS. 8 and 19.

[2] = tested on: HIV-1 isolate L74V; experiment: Cytopathic cell killing assay, MT-4 cells, isolate L74V; assay type: cell-based
Source text: as §1, §2, §3, §4

[3] = tested on: HIV-1 isolate A98G; experiment: Cytopathic cell killing assay, MT-4 cells, isolate A98G; assay type: cell-based
Source text: as §1, §2, §3, §4

[4] = tested on: HIV-1 isolate L100I; experiment: Cytopathic cell killing assay, MT-4 cells, isolate L100I; assay type: cell-based
Source text: as §1, §2, §3, §4

[5] = tested on: HIV-1 isolate K101E; experiment: Cytopathic cell killing assay, MT-4 cells, isolate K101E; assay type: cell-based
Source text: as §1, §2, §3, §4

[6] = tested on: HIV-1 isolate K103N; experiment: Cytopathic cell killing assay, MT-4 cells, isolate K103N; assay type: cell-based
Source text: as §1, §2, §3, §4

[7] = tested on: HIV-1 isolate V106A; experiment: Cytopathic cell killing assay, MT-4 cells, isolate V106A; assay type: cell-based
Source text: as §1
(§5) In this Example, the antiviral and cellular toxicity of NNRTIs was investigated, using the cytopathic cell killing assay described by Yang (Yang et al., “Characteristics of a Group of Non-nucleoside Reverse Transcriptase Inhibitors with Structural Diversity and Potent Anti-Human Immunodeficiency Virus Activity,” Leukemia 9:S75-S85 [1995]). Briefly, in this method cells (e.g., the CEM-SS cell line, available from the NIAID AIDS Research and Reference Program [ARRRP]) were seeded at a density of 5×10^3 cells/well, into the wells of a 96-well microtiter plate. The cells were then infected with HIV virus (either mutant or WT), at a multiplicity of infection (MOI) previously determined to provide complete cell killing by 6 days of culture post-infection (e.g., MOI of 0.01-0.05). Each of the HIV isolates was pre-titered to induce equivalent levels of infection based on cell killing or virus production, prior to their use in these assays. A range of test compound concentrations was added to the wells in triplicate (e.g., serial half-log dilutions) to evaluate inhibition of HIV infection. […]
(§6) After six days of incubation at 37° C., cell viability was determined spectrophotometrically at 450 nm for each well, using the metabolic reduction of XTT to a soluble colored formazan. (See, Gartner and Popovic, “Virus Isolation and Production, in Aldovini and Walker (eds.), Techniques in HIV Research, Stockton Press, NY, pp. […] [1991]; and Nara and Fischinger, “Quantitative Infectivity Assay for HIV-1 and HIV-2, ” Nature 332:469-470 [1988]). […]

[8] = tested on: HIV-1 isolate V108I; experiment: Cytopathic cell killing assay, MT-4 cells, isolate V108I; assay type: cell-based
Source text: as §1, §2, §3, §4

[9] = tested on: HIV-1 isolate Y181C; experiment: Cytopathic cell killing assay, MT-4 cells, isolate Y181C; assay type: cell-based
Source text: as §1, §2, §3, §4

[10] = tested on: HIV-1 isolate Y188C; experiment: Cytopathic cell killing assay, MT-4 cells, isolate Y188C; assay type: cell-based
Source text: as §1, §2, §3, §4

[11] = tested on: HIV-1 isolate 4xAZT (AZT drug-resistant variant); experiment: Cytopathic cell killing assay, MT-4 cells, isolate 4xAZT; assay type: cell-based; settings: Human immunodeficiency virus 1, MT4, read-out: EC50, isolate 4XAZT
Source text: as §1, §5, §6

[12] = tested on: HIV-1 isolate 4xAZT/L100I; experiment: Cytopathic cell killing assay, MT-4 cells, isolate 4xAZT/L100I; assay type: cell-based; settings: Human immunodeficiency virus 1, MT4, read-out: EC50, isolate 4XAZT/L1001
Protocol: The various HIV isolates tested in the Figures are those corresponding to wild-type virus (NL4-3) and the other strains listed by their RT mutations. The three 4×AZT isolates included in the Figures represent AZT drug-resistant variants.
Briefly, in this method cells (e.g., the CEM-SS cell line, available from the NIAID AIDS Research and Reference Program [ARRRP]) were seeded at a density of 5×10^3 cells/well, into the wells of a 96-well microtiter plate. The cells were then infected with HIV virus (either mutant or WT), at a multiplicity of infection (MOI) previously determined to provide complete cell killing by 6 days of culture post-infection (e.g., MOI of 0.01-0.05). Each of the HIV isolates was pre-titered to induce equivalent levels of infection based on cell killing or virus production, prior to their use in these assays. A range of test compound concentrations was added to the wells in triplicate (e.g., serial half-log dilutions) to evaluate inhibition of HIV infection. Controls for each assay included drug controls (drug colorimetric control wells), drug cytotoxicity control wells (cells with drug), virus control wells (cells with virus), and cell viability controls (cells only). Positive control drugs (e.g. AZT and ddC) were also run in parallel.
as §3
The in vitro therapeutic index (TI50) was defined as the fold-difference between the EC50 and IC50.

[13] = tested on: HIV-1 isolate 4xAZT/Y181C; experiment: Cytopathic cell killing assay, MT-4 cells, isolate 4xAZT/Y181C; assay type: cell-based; settings: Human immunodeficiency virus 1, MT4, read-out: EC50, isolate 4XAZT/Y181C
Source text: as §1, §2, §3, §4

[14] = Human immunodeficiency virus 1, MT4, read-out: EC50, isolate K101E, Table 8, MT-4 cells
[15] = Human immunodeficiency virus 1, MT4, read-out: EC50, isolate K103N, Table 8, MT-4 cells
[16] = Human immunodeficiency virus 1, MT4, read-out: EC50, isolate Y181C, Table 8, MT-4 cells

Q: With `Nc1cccc2c1nc(-c1c(F)cccc1F)n2Cc1c(F)cccc1F` [Compound 3300, 4-amino-1-(2,6-difluorobenzyl)-2-(2,6-difluorophenyl)benzimidazole] as the compound, how does the EC50 ([1]; Human immunodeficiency virus 1, NL43, MT4, Table 8, MT-4 cells, read-out: EC50, isolate NL4-3) read?
A: 0.5 µM

Q: And the EC50 ([1]; Human immunodeficiency virus 1, NL43, MT4, Table 10, values in μM, read-out: EC50, isolate NL4-3 (WT))?
A: 0.68 µM

Q: What about the EC50 ([1]; Table 10, values in μM, listed as NH2, read-out: EC50, isolate NL4-3 (WT)) of the same compound?
A: 0.4 µM

Q: And the EC50 ([2]; Human immunodeficiency virus 1, MT4, read-out: EC50, isolate L74V, Table 8, MT-4 cells)?
A: 300 nM

Q: What about the EC50 ([3]; Human immunodeficiency virus 1, MT4, read-out: EC50, isolate A98G, Table 8, MT-4 cells) of the same compound?
A: 1500 nM

Q: What about the EC50 ([4]; Human immunodeficiency virus 1, MT4, read-out: EC50, isolate L1001, Table 8, MT-4 cells) of the same compound?
A: 1300 nM

Q: And the EC50 [5, 14]?
A: > 20 µM

Q: What about the EC50 [6, 15] of the same compound?
A: > 20 µM

Q: And the EC50 ([7]; Human immunodeficiency virus 1, MT4, read-out: EC50, isolate V106A, Table 8, MT-4 cells)?
A: > 20000 nM

Q: What about the EC50 ([8]; Human immunodeficiency virus 1, MT4, read-out: EC50, isolate V1081, Table 8, MT-4 cells) of the same compound?
A: > 20000 nM

Q: And the EC50 [9, 16]?
A: 6 µM

Q: And the EC50 ([10]; Human immunodeficiency virus 1, MT4, read-out: EC50, isolate Y188C, Table 8, MT-4 cells)?
A: 2.7 µM

Q: And the EC50 ([10]; Human immunodeficiency virus 1, MT4, read-out: EC50, isolate Y188C, Table 10, values in μM)?
A: 2 µM

Q: And the EC50 [11]?
A: 200 nM

Q: What about the EC50 [12] of the same compound?
A: 300 nM

Q: What about the EC50 [13] of the same compound?
A: > 10000 nM

Q: And the melting point?
A: 168 to 170 °C

Q: Which EC50 ([1]; Human immunodeficiency virus 1, NL43, MT4, read-out: EC50, isolate NL4-3) does the source give for `CCc1cccc2c1nc(-c1c(F)cccc1F)n2Cc1c(F)cccc1F` [Compound 4011, 1-(2,6-difluorobenzyl)-2-(2,6-difluorophenyl)-4-ethylbenzimidazole] here?
A: 1.1 µM

Q: What about the EC50 ([1]; Human immunodeficiency virus 1, NL43, MT4, read-out: EC50, isolate NL4-3 (WT)) of the same compound?
A: 0.9 µM

Q: And the EC50 ([2]; Human immunodeficiency virus 1, MT4, read-out: EC50, isolate L74V)?
A: 1500 nM

Q: What about the EC50 ([3]; Human immunodeficiency virus 1, MT4, read-out: EC50, isolate A98G) of the same compound?
A: 8000 nM

Q: What about the EC50 ([4]; Human immunodeficiency virus 1, MT4, read-out: EC50, isolate L100I) of the same compound?
A: 2480 nM

Q: What about the EC50 ([4]; Human immunodeficiency virus 1, MT4, read-out: EC50, isolate L1001) of the same compound?
A: 600 nM

Q: And the EC50 [5, 14]?
A: > 20 µM

Q: And the EC50 ([5]; Human immunodeficiency virus 1, MT4, read-out: EC50, isolate K101E, Table 10, values in μM)?
A: > 50 µM

Q: What about the EC50 [6, 15] of the same compound?
A: > 20 µM

Q: And the EC50 ([6]; Human immunodeficiency virus 1, MT4, read-out: EC50, isolate K103N, Table 10, values in μM)?
A: > 50 µM

Q: What about the EC50 ([7]; Human immunodeficiency virus 1, MT4, read-out: EC50, isolate V106A) of the same compound?
A: > 20000 nM

Q: What about the EC50 ([8]; Human immunodeficiency virus 1, MT4, read-out: EC50, isolate V108I) of the same compound?
A: > 50000 nM

Q: What about the EC50 ([8]; Human immunodeficiency virus 1, MT4, read-out: EC50, isolate V1081) of the same compound?
A: 3000 nM

Q: And the EC50 [9, 16]?
A: > 10 µM

Q: What about the EC50 ([9]; Human immunodeficiency virus 1, MT4, read-out: EC50, isolate Y181C, Table 10, values in μM) of the same compound?
A: 7.18 µM

Q: What about the EC50 ([10]; Human immunodeficiency virus 1, MT4, read-out: EC50, isolate Y188C) of the same compound?
A: 5.5 µM

Q: What about the EC50 [11] of the same compound?
A: 3000 nM

Q: And the EC50 [12]?
A: 600 nM

Q: What about the EC50 [13] of the same compound?
A: > 20000 nM

Q: And the melting point?
A: 165 to 166 °C
